Data as given in patent US20230190967A1, “Method and Composition for Evaluating Response to Neurodegenerative Disease Treatment Agent” (GENUV INC., priority 2020, published 2023).
“Also recorded” adds a separate entry of the source. Like-named read-outs stand apart in the source and are kept apart here.

What was measured:
[1] = tested on: Neurofilament-light chain (NfL); test: ELISA of plasma neurofilament light chain in 5XFAD mice; format: in vivo, mouse
Source text: (§1) Age-matched wild-type (WT) mice were orally administered vehicle for 2.5 months. Blood was obtained from all the mice at the age of 8 months after completion of the treatment and collected in EDTA tubes, which were centrifuged to obtain plasma. Mice were sacrificed by the perfusion method, and the brain cortex was extracted and immediately frozen.
(§2) Blood was obtained from the 13-month-old mice after completion of the treatment and collected in EDTA tubes, which were centrifuged to obtain plasma. Mice were sacrificed, and the brain cortex was extracted, washed with PBS, and immediately frozen.
(§3) ELISA was performed to detect changes in the level of biomarkers in the plasma of 5XFAD mice. The following ELISA kits were used for each of the biomarkers: • Neurofilament-light chain (NfL): Cloud-Clone, SEE038Mu • Cathepsin B (CTSB): Novus, NBP2-67254 • Osteopontin (OPN): LS bio, LS-F26046-1 • Synaptotagmin-1 (Syt1): LS bio, LS-F30963-1 • Apolipoprotein-E (ApoE): Novus, NBP2-66739
(§4) NfL, CTSB and ApoE were detected by colorimetric methods. OPN and Syt1 were detected by chemiluminescent methods. ELISA was performed according to the ELISA kit manufacturer's instructions.

[2] = tested on: 8-month-old 5XFAD mouse brain cortex
Description: as §1
(§5) Single-cell RNA sequencing analysis was performed on the 8-month-old 5XFAD mouse and wild type mouse brain cortex samples. The cortex was microdissected in HABG (Hibernate A buffer including B27 supplement and glutamine) media and digested in papain solution for 20 min at 37° C. (Brewer et al (2007). Isolation and culture of adult neurons and neurospheres. Nat Protoc 2, 1490-1498). Using a Pasteur pipette, the digested cortex was gently triturated. Cells were isolated by the density gradient method using OptiPrep (Sigma-Aldrich, D1556).
The cell suspension was diluted with Drop-seq buffer, and Drop-seq was performed using the Chromium™ Single Cell 3′ v2 Reagent Kit (Campbell et al. (2017). A molecular census of arcuate hypothalamus and median eminence cell types. Nat Neurosci 20, 484-496). Libraries were sequenced on the Illumina HiSeq X Ten, and Read 1 was 16 bp (10×™ Barcode and 10 bp UMI). Cells with either very low or too high mRNA content (to only include: 200<gene number <3,000) or a high fraction of mitochondrial encoded transcripts (>20%) were filtered out. Using 20,056 cells, raw sequence data were aligned to the mouse (mm10) genome, and analyses including PCA, t-SNE, and graph-based clustering were performed with the Cell Ranger Single-Cell software.
In addition to the microglial cells, the other brain cell types were also analyzed for the genes differentially expressed between the experimental groups.

C57BL/6 mice whole brain = test: Whole cell RNA sequencing of whole brain of C57BL/6 mice after 1, 2, 3, or 4 weeks of administration; format: in vivo, mouse; conditions: 0.1 mg/kg/day
Description: Mice were sacrificed after 1, 2, 3, or 4 weeks of administration. Whole brain was extracted.
Whole cell RNA sequencing analysis was performed with the RNA isolated from the whole brain of the mice to observe the change of genes in the brain during the administration period.
The whole cell RNA sequencing was performed as follows. RNA was isolated from the whole brains of the mice, and cDNA libraries for RNA sequencing were prepared using the TruSeq Stranded mRNA Prep Kit (Illumina, San Diego, Calif.) according to the manufacturer's guidelines. The libraries were sequenced on the Illumina Nextseq500 platform, and the reads were mapped to the reference Mouse mm10 genome using Tophat v2.0.13. After read mapping, transcript assembly was performed using StringTie program. The expression profile for each sample was obtained, and RPKM (Read per Kilobase per million mapped reads) values were calculated based on the transcripts/genes. To compare the gene expression levels in each experimental group, DEG (Differentially Expressed Genes) were analyzed using DESeq2. As a result, 196 genes satisfying |fc|>=2, p value <0.05 in at least one comparison set were extracted. The extracted gene information was checked in KEGG database (http://www.kegg.jp/kegg/pathway.html) to identify which pathway the genes belong to. Genes showing at least a twofold increase in the expression level in the corresponding pathway were marked bold, and those showing at least a twofold decrease were marked italic on the right side of the heatmap (FIG. 10).

Osteopontin (OPN) = test: ELISA of plasma osteopontin in 5XFAD mice; format: in vivo, mouse; conditions: for Decrease of plasma osteopontin (OPN) level vs. 5XFAD-vehicle group: 8-month-old 5XFAD
Source text: as §1, §2, §3, §4

Map2, a dendrite marker = test: Immunohistochemical analysis of Map2 (dendrite/neurite marker) in brain tissue of 5XFAD mice; format: in vivo, mouse; conditions: 8-month-old 5XFAD mice, FIGS. 8 and 9
Source text: as §1
The sections were counterstained with DAPI.

Synaptotagmin-1 (Syt1) = test: ELISA of plasma synaptotagmin-1 in 5XFAD mice; format: in vivo, mouse; conditions: 8-month-old 5XFAD
Description: as §1, §3, §4

Cathepsin B (CTSB) = tested on: Cathepsin B (CTSB)
Source text: as §1, §2, §3, §4

H2-Ob mRNA = test: qRT-PCR of H2-Ob mRNA expression in brain cortex of 5XFAD mice; format: in vivo, mouse; conditions: 8-month-old 5XFAD mice brain cortex, 0.1 mg/kg/day trametinib, FIG. 11
Description: as §1
(§6) In addition, qRT-PCR was performed to measure the mRNA expression level in the brain tissue of each animal. […] Reverse transcription was performed using M-MLV reverse transcriptase (Invitrogen, 28025013). qRT-PCR was performed using the SYBRTM Green PCR master mix (Thermo, 4367659) according to the manufacturer's instructions. Results were expressed relative to the housekeeping gene GAPDH (Glyceraldehyde-3-Phosphate Dehydrogenase).

Apolipoprotein-E (ApoE) = test: ELISA of plasma apolipoprotein-E in 5XFAD mice; format: in vivo, mouse; conditions: 8-month-old 5XFAD
Description: as §1, §3, §4

Spp1 mRNA = test: qRT-PCR of Spp1 mRNA expression in brain tissue of 5XFAD mice; format: in vivo, mouse; conditions: 0.1 mg/kg/day
Source text: as §1, §2, §6

[3] = tested on: 8-month-old 5XFAD mouse brain cortex; test: Single cell RNA sequencing of brain cortex: number of single cells analyzed per cell type; format: in vivo; conditions: 8-month-old 5XFAD mice cortex, trametinib 0.1 mg/kg/day
Description: as §1, §5
The cell suspension was diluted with Drop-seq buffer, and Drop-seq was performed using the Chromium™ Single Cell 3′ v2 Reagent Kit (Campbell et al. (2017). A molecular census of arcuate hypothalamus and median eminence cell types. Nat Neurosci 20, 484-496). Libraries were sequenced on the Illumina HiSeq X Ten, and Read 1 was 16 bp (10×™ Barcode and 10 bp UMI). […]

[4] = 8-month-old 5XFAD, trametinib 0.1 mg/kg/day, statistically significant
[5] = M (microglia), 8-month-old 5XFAD cortex, 0.1 mg/kg/day
[6] = microglia cluster, 5XFAD-Tra 0.1 group
[7] = C57BL/6 mice whole brain, at least twofold

## CC(=O)Nc1cccc(-n2c(=O)n(C3CC3)c(=O)c3c(Nc4ccc(I)cc4F)n(C)c(=O)c(C)c32)c1 [trametinib, N-(3-{3-cyclopropyl-5-[(2-fluoro-4-iodophenyl)amino]-6,8-dimethyl-2,4,7-trioxo-3,4,6,7-tetrahydropyrido[4,3-d]pyrimidin-1(2H)-yl}phenyl)acetamide]
[1]; [4]
  Decrease of plasma neurofilament light chain (NfL) level vs. 5XFAD-vehicle group: 47.4%
[1]; 13-month-old 5XFAD, trametinib 0.1 mg/kg/day 1 month, FIG. 7B
  Plasma NfL levels, vehicle vs. trametinib-administered groups: did not show a significant difference
[2]; Astro (Astrocyte), 8-month-old 5XFAD cortex, 0.1 mg/kg/day
  Log2(5XFAD-Tra0.1/5XFAD-Veh) ApoE (Apolipoprotein E): −0.5177
[2]; Endo (Endothelial), 8-month-old 5XFAD cortex, 0.1 mg/kg/day
  Log2(5XFAD-Tra0.1/5XFAD-Veh) CTSB (Cathepsin B): 0.8182
[2]; [5]
  Log2(5XFAD-Tra0.1/5XFAD-Veh) CTSE (Cathepsin E): −0.543
  Log2(5XFAD-Tra0.1/5XFAD-Veh) Spp1 (Osteopontin): −0.646
[2]; [6]
  Decrease of Spp1 expression compared to the 5XFAD-vehicle group: at least 1.5 fold
  Decrease of Wfdc17 expression compared to the 5XFAD-vehicle group: at least 1.5 fold
  Expression of the Spp1 gene (in words): decreased
  Increase of Acta2 expression compared to the 5XFAD-vehicle group: at least 1.5 fold
  Increase of Ptgds expression compared to the 5XFAD-vehicle group: at least 1.5 fold
  Increase of Rpl9-ps6 expression compared to the 5XFAD-vehicle group: at least 1.5 fold
  Increase of Rpl10-ps3 expression compared to the 5XFAD-vehicle group: at least 1.5 fold
C57BL/6 mice whole brain; [7]
  Genes showing an increase in the expression level in weeks 1 and 2: Oprm1, Glp1r, Grin2a, Grin2b, Glra3,; also recorded: Glra1, Cnr2, Grin3b, Gabrr2, Ksr2, Cdh1,; also recorded: Tead4, Ctnna3, PDE11a, Nt5cla
  Genes showing an increase in the expression level in weeks 3 and 4: Plin4, H2-Ob, Hspa1l, HSPa1b, Hnmpa1,; also recorded: Nos2, Rab5c
  Genes showing a decrease in the expression level in weeks 1 and 2: Pla2g4c, C1s2
  Genes showing a decrease in the expression level in weeks 3 and 4: Efna4, Scd4, Cd36, Ppp3r2
C57BL/6 mice whole brain; C57BL/6 mice, 3 and 4 weeks after the administration
  H2-Ob level (whole brain RNA sequencing): remarkably increased
Osteopontin (OPN); trametinib 0.05 mg/kg/day
  Decrease of plasma osteopontin (OPN) level vs. 5XFAD-vehicle group: 40%
Osteopontin (OPN); trametinib 0.1 mg/kg/day
  Decrease of plasma osteopontin (OPN) level vs. 5XFAD-vehicle group: 43.9%
Osteopontin (OPN); 13-month-old 5XFAD, trametinib 0.1 mg/kg/day 1 month, statistically significant
  Decrease of plasma osteopontin (OPN) level vs. vehicle group: 61.5%
Map2, a dendrite marker
  Neurite marker (Map2) in the brain tissue: increased
Synaptotagmin-1 (Syt1); trametinib 0.05 mg/kg/day
  Decrease of plasma synaptotagmin-1 (Syt1) level vs. 5XFAD-vehicle group: 26.2%
Synaptotagmin-1 (Syt1); trametinib 0.1 mg/kg/day
  Decrease of plasma synaptotagmin-1 (Syt1) level vs. 5XFAD-vehicle group: 41.0%
Cathepsin B (CTSB); 8-month-old 5XFAD, trametinib 0.05 mg/kg/day
  Decrease of plasma cathepsin B level vs. 5XFAD-vehicle group: 62.4%
Cathepsin B (CTSB); [4]
  Decrease of plasma cathepsin B level vs. 5XFAD-vehicle group: 99%
Cathepsin B (CTSB); 13-month-old 5XFAD, trametinib 0.1 mg/kg/day 1 month, FIG. 6
  Decrease of plasma cathepsin B level vs. 5XFAD-vehicle group: 35%
H2-Ob mRNA
  H2-Ob mRNA expression level compared to the 5XFAD-vehicle group: significantly increased
Apolipoprotein-E (ApoE); trametinib 0.1 mg/kg/day
  Decrease of plasma apolipoprotein-E (APOE) level vs. 5XFAD-vehicle group: 34.3%
Apolipoprotein-E (ApoE); trametinib 0.2 mg/kg, statistically significant
  Decrease of plasma apolipoprotein-E (APOE) level vs. 5XFAD-vehicle group: 58.9%
Spp1 mRNA; 8-month-old 5XFAD mice cortex, FIG. 1A
  Spp1 level (mRNA) compared with the 5XFAD-vehicle group: decreasing trend
Spp1 mRNA; 13-month-old 5XFAD mice brain, FIG. 1B
  Spp1 level (mRNA) compared with the 5XFAD-vehicle group: decreasing trend
[3]
  Microglial population compared to the 5XFAD-vehicle group: decrease
